Experimental data taken from PubChem BioAssay (NCI).
“And” between values parts separate entries of the source, which are not always exact repeats. Equal entries are not always repeated.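 Each compound was tested at five concentrations against cells in 96-well plates for 48 hours. At the GI50, growth is halved. TGI is the concentration that stops growth completely.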

Columns and labels:
Assay in all cases: inhibition of tumour cell growth, NCI panel, 48 h
SK-OV-3 ovarian = test system: SK-OV-3 ovarian
SF-539 CNS = test system: SF-539 CNS
SW-620 colon = test system: SW-620 colon
786-0 renal = test system: 786-0 renal
HT29 colon = test system: HT29 colon
NCI-H522 lung = test system: NCI-H522 lung
RPMI-8226 leukemia = test system: RPMI-8226 leukemia
SNB-19 CNS = test system: SNB-19 CNS
NCI-H226 lung = test system: NCI-H226 lung
PC-3 prostate = test system: PC-3 prostate

SMILES	TGI (SK-OV-3 ovarian)	TGI (SF-539 CNS)	TGI (SW-620 colon)	TGI (786-0 renal)	TGI (HT29 colon)	TGI (NCI-H522 lung)	TGI (RPMI-8226 leukemia)	TGI (SNB-19 CNS)	GI50 (SF-539 CNS)	GI50 (NCI-H226 lung)	TGI (NCI-H226 lung)	GI50 (SW-620 colon)	GI50 (786-0 renal)	GI50 (SNB-19 CNS)	GI50 (HT29 colon)	GI50 (NCI-H522 lung)	GI50 (RPMI-8226 leukemia)	GI50 (PC-3 prostate)	TGI (PC-3 prostate)	GI50 (SK-OV-3 ovarian)
O=[P+](O)c1ccsc1	> 100 µM	> 100 µM	> 100 µM	> 100 µM	> 100 µM	> 100 µM	> 100 µM	–	–	–	–	–	–	–	–	–	–	–	–	–
C[C@]12CC/C(=N\O)C=C1CC[C@@H]1C2CC[C@@]2(C)C1CC[C@@H]2OC1CCCCO1 (stereo partly specified)	36.3 µM	> 10 µM	32 µM	33.3 µM	28.8 µM	34.7 µM	37.7 µM	33.1 µM	–	–	–	–	–	–	–	–	–	–	–	–
CC(C)([NH-])CO.CC(C)([NH-])CO.[Cl][Cd][Cl]	–	33.2 µM	38.9 µM	31.3 µM	67.1 µM	3.37 µM	43.8 µM	> 100 µM	18.7 µM	7.84 µM	20.9 µM	18.6 µM	16.6 µM	> 100 µM	28.8 µM	1.56 µM	14.5 µM	–	–	–
Cn1cnc([N+](=O)[O-])c1Sc1nccn1-c1cccc2ccccc12	> 100 µM	90.2 µM	> 100 µM	> 100 µM	88.1 µM	22.4 µM	49.9 µM	> 100 µM	–	–	59.6 µM	–	–	–	–	–	–	–	–	–
Cc1cccc(C(C)(C)C)c1NC(=O)CC1C(=O)Nc2ccccc2S1(=O)=O (stereo unspecified)	–	10.2 µM	22.1 µM	21.5 µM	16.3 µM	–	17.2 µM	29.2 µM	–	–	32.8 µM	–	–	–	–	–	–	–	–	–
C#CCSc1cc(Cl)c(C)cc1S(=O)(=O)Nc1nc2ccccc2o1	–	39.1 µM	> 100 µM	91.4 µM	> 100 µM	61.5 µM	> 100 µM	> 100 µM	20.2 µM	57 µM	> 100 µM	46.7 µM	31.9 µM	44.5 µM	42.8 µM	25.7 µM	38.1 µM	32.6 µM	> 100 µM	–
CC(=O)C1C(c2ccc(N(C)C)cc2)c2cc3c(cc2OC1(C)O)OCO3 (stereo unspecified)	> 100 µM	–	> 100 µM	> 100 µM	58.5 µM	–	83.2 µM	> 100 µM	–	–	–	–	–	–	–	–	–	–	–	–
CCC/C(=N\NC(=S)N1CC2CCC(CC2)C1)c1ccccn1	2.13 µM and 2.31 µM	1.55 µM and 5.36 µM	0.555 µM and 0.221 µM	1.19 µM and 2.55 µM	1.65 µM and 2.51 µM	0.738 µM	–	2.04 µM and 1.92 µM	1.16 µM	1.13 µM	4.79 µM and 2.58 µM	–	1.25 µM	0.338 µM	0.0244 µM	–	–	–	1.39 µM	1.1 µM
COc1c2ccoc2c(OC)c2oc(=O)ccc12	–	> 100 µM	> 100 µM	> 100 µM	> 100 µM	> 100 µM	> 100 µM	> 100 µM	–	–	> 100 µM	–	–	–	–	–	–	–	> 100 µM	–
NCCOCCOCCNc1nc(-c2ccccc2)nc(N2CCN(c3ccccn3)CC2)n1	34.2 µM	33.1 µM	28.4 µM	26 µM	17.6 µM	–	34.2 µM	–	17.6 µM	17.1 µM	32.3 µM	13.2 µM	12.6 µM	–	4.55 µM	–	13.5 µM	15.7 µM	30.8 µM	18.8 µM
COC(=O)C(C(=O)OC)C1CCCC(=O)C1 (stereo unspecified)	> 100 µM	> 100 µM	> 100 µM	> 100 µM	> 100 µM	–	> 100 µM	> 100 µM	–	–	–	–	–	–	–	–	–	–	–	–
Cc1ccc(NC(=O)CC2Sc3ccccc3NC2=O)c(C)c1 (stereo unspecified)	33 µM	29.6 µM	56 µM	26.5 µM	–	30.4 µM	43.9 µM	30.3 µM	–	–	33.5 µM	–	–	–	–	–	–	–	–	–
O=C(c1ccccc1)C1OC12C(=O)Nc1c(Cl)cc(Cl)cc12 (stereo unspecified)	> 100 µM	> 100 µM	35.4 µM	> 100 µM	> 100 µM	34.6 µM	> 100 µM	> 100 µM	–	–	> 100 µM	–	–	–	–	–	–	–	–	–
Cc1ccc(S(=O)(=O)NC2(C=O)CCCC3CCCCC32)cc1 (stereo unspecified)	> 100 µM	> 100 µM	> 100 µM	> 100 µM	–	> 100 µM	> 100 µM	> 100 µM	–	–	> 100 µM	–	–	–	–	–	–	–	–	–
O=C(Nc1ccc(Cl)c(Cl)c1)Nc1c(Oc2ccc(Cl)c(Cl)c2)ccc(Cl)c1S(=O)(=O)O	–	–	> 100 µM	29.8 µM	> 100 µM	–	> 100 µM	> 100 µM	–	3.91 µM	> 100 µM	1.27 µM	3.05 µM	3.42 µM	1.84 µM	–	2.91 µM	3.59 µM	> 100 µM	–
C[n+]1c2cc(N)ccc2cc2ccc(N)cc21	–	3.69 µM [middle of 4 runs]	–	–	2.72 µM and 13.3 µM and 3.15 µM	3.68 µM [middle of 4 runs]	–	5.01 µM [middle of 4 runs]	1.33 µM [middle of 4 runs]	882 nM [middle of 4 runs]	3.98 µM [middle of 4 runs]	198 nM [middle of 4 runs]	1.33 µM [middle of 4 runs]	933 nM [middle of 4 runs]	1 µM [middle of 4 runs]	917 nM [middle of 4 runs]	1.89 µM [middle of 4 runs]	696 nM [middle of 4 runs]	5.8 µM [middle of 4 runs]	–
CN1C(=O)C2C3C=C4c5ccccc5N(c5ccccc5)C4(C2C1=O)[C@H]1C(=O)N(C)C(=O)[C@@H]31 (stereo partly specified)	> 100 µM	–	> 100 µM	> 100 µM	> 100 µM	> 100 µM	> 100 µM	> 100 µM	–	–	> 100 µM	–	–	–	–	–	–	–	–	–
C/C1=C/C(=O)O[C@@H]2C[C@@H](CC[C@H](C)/C=C\C=C\CC1)O[C@@](O)([C@@H]1CSC(=O)N1)C2	> 9.4 µM	0.991 µM	–	> 10 µM	> 10 µM	–	> 10 µM	> 7.89 µM	–	–	> 2.9 µM	–	–	–	–	–	–	–	> 10 µM	–
CC(Nc1ccc(S(=O)(=O)N=C(N)N)cc1)c1c2ccccc2nc2ccccc12 (stereo unspecified)	73.6 µM	63.4 µM	> 100 µM	> 100 µM	> 100 µM	38 µM	55.2 µM	> 100 µM	–	–	80.4 µM	–	–	–	–	–	–	–	–	–
CC12CCC3(OCCO3)C(OC(=O)c3ccccc3)=C1CCC21OCCO1 (stereo unspecified)	> 100 µM	> 100 µM	> 100 µM	> 100 µM	> 100 µM	> 100 µM	> 100 µM	> 100 µM	–	–	> 100 µM	–	–	–	–	–	–	–	–	–
